The source of these data is patent publication US12428413B2 (CHDI Foundation, Inc., priority 2019, dated 2025).

The conditions of assay [1]: from 1 through 7 hours after instillation; cited from earlier work.
The subject of assay [2] is hepatic ischemia/reperfusion in rats. As to conditions: oral pretreatment, 25% in vehicle-treated animals; cited from earlier work.
For assay [3], the system named is cellular ROCK activity (cofilin phosphorylation at Ser3) in A7r5 rat smooth muscle cells. Description: Cellular ROCK activity: cofilin (Ser3) phosphorylation, In-Cell Western assay. It counts as cell-based. To be noted: Rattus norvegicus, A7R5, 1 h, 1 hour compound incubation, phospho-cofilin (Ser3), read-out: CELL_IC50. The essentials: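 A7r5 rat smooth muscle cells (3000/well, overnight) exposed to compound for 1 h at 37° C., then formaldehyde-fixed. Phospho-cofilin Ser3 detected by In-Cell Western with 800CW secondary antibody, read at 700 and 800 nm on an Odyssey imager.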

The target of assay [4] is T1, human catalytic domain ROCK II protein (amino acids 5-554) with a N-terminal GST tag (Homo sapiens, UniProt O75116).
Assay [5] has as its target T1, human catalytic domain ROCK II protein (amino acids 5-554) with a N-terminal GST tag. In words: biochemical.

Where two headings read alike, the source gives them in different places.

T1 sequence (O75116 5-554): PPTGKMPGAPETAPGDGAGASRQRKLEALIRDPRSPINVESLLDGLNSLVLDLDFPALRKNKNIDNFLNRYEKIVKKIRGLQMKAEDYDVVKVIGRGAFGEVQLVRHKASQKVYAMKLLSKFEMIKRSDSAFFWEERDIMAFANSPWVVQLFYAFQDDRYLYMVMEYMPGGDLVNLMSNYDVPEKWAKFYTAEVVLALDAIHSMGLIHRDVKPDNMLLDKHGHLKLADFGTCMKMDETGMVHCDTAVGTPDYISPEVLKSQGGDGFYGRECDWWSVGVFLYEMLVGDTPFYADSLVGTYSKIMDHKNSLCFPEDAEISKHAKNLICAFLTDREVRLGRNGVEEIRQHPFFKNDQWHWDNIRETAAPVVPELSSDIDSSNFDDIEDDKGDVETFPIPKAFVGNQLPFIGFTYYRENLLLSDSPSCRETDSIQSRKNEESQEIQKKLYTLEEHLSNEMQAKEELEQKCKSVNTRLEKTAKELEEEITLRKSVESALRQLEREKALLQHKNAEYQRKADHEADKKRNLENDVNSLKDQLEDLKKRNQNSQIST

For the compound `C[C@H]1CNCCCN1S(=O)(=O)c1cccc2cncc(F)c12` [Ripasudil], in assay [1], the intraocular pressure reduction entry was “Significant intraocular pressure reduction”.

For the compound `C[C@@H](N)[C@H]1CC[C@H](C(=O)Nc2ccncc2)CC1` [Example Y27632], the “survival at one week after ischemia” value in assay [2] is listed as 75%.

On to `COc1cccc([C@@H](C)NC(=O)N2CCN(c3ccncc3F)C[C@H]2C)c1F` [Example 44, (R)—N—((R)-1-(2-Fluoro-3-methoxyphenyl)ethyl)-4-(3-fluoropyridin-4-yl)-2-methylpiperazine-1-carboxamide], for which the results for the IC50 in assay [3] and in assay [4] were 323 nM and 26.3 nM, respectively.

Turning to `C[C@@H](NC(=O)N1CCN(c2ccncc2F)CC1)c1cccc2c1OC(F)(F)O2` [Example 36, (R)—N-(1-(2,2-Difluorobenzo[d][1,3]dioxol-4-yl)ethyl)-4-(3-fluoropyridin-4-yl)piperazine-1-carboxamide], the IC50 worked out at 1440 nM in assay [3] and 88.1 nM in assay [5].

In the case of `COc1cccc([C@@H](C)NC(=O)N2CCN(c3ccncc3Cl)C[C@H]2C)c1` [Example 155], the IC50 in assay [3] came to 42.2 nM; in assay [5], 2.7 nM.

Take `COc1cccc([C@@H](C)NC(=O)N2CCN(c3ccncc3F)C[C@@H]2C)c1` [Example 133]: the figures for the IC50 in assay [3] and in assay [5] were 2440 nM and 167 nM, respectively.

As for `COc1cccc([C@@H](C)NC(=O)N2CCN(c3ccncc3F)[C@@H](C)C2)c1` [Example 90, (S)-4-(3-Fluoropyridin-4-yl)-N—((R)-1-(3-methoxyphenyl)ethyl)-3-methylpiperazine-1-carboxamide], the IC50 amounted to 62 nM in assay [3] and 4.8 nM in assay [5].

Turning to `COc1cccc([C@@H](C)NC(=O)N2CCN(c3ccncc3F)[C@@H]3C[C@@H]32)c1` [Example 151], the IC50 in assay [3] was 703 nM; in assay [5], 51.9 nM.

For the compound `COc1cccc([C@@H](C)NC(=O)N2[C@H](C)CN(c3ccnc(F)c3)C[C@H]2C)c1` [Example 15, (2R,6R)-4-(2-Fluoropyridin-4-yl)-N—((R)-1-(3-methoxyphenyl)ethyl)-2,6-dimethylpiperazine-1-carboxamide], the IC50 in assay [3] is 1390 nM; in assay [5], 75.9 nM.

Turning to `COc1ccc(Cl)c([C@@H](C)NC(=O)N2CCN(c3ccncc3F)CC2)c1` [Example 24, (R)—N-(1-(2-Chloro-5-methoxyphenyl)ethyl)-4-(3-fluoropyridin-4-yl)piperazine-1-carboxamide], the IC50 in assay [3] came to 902 nM; in assay [5], 37.5 nM.

As for `[2H]C([2H])([2H])Oc1cccc([C@@H](C)NC(=O)N2CCN(c3ccnc(F)c3)C[C@H]2C)c1` [Example 115], the IC50 was 138 nM in assay [3] and 8.1 nM in assay [5].

Consider `[2H]C([2H])([2H])Oc1cccc([C@H](NC(=O)N2CCN(c3ccnc(F)c3)C[C@H]2C)C([2H])([2H])[2H])c1` [Example 116], for which the IC50 turned out to be 127 nM in assay [3] and 6.9 nM in assay [5].

Turning to `C[C@@H]1CN(c2ccncc2F)CCN1C(=O)OCc1cccc2nccn12` [Example 73, Imidazo[1,2-a]pyridin-5-ylmethyl (R)-4-(3-fluoropyridin-4-yl)-2-methylpiperazine-1-carboxylate], the values for the IC50 in assay [3] and in assay [5] were 1420 nM and 227 nM, respectively.

As for `COc1cccc(CN2CC[C@H]3CN(c4ccncc4F)CCN3C2=O)c1` [Example 88, (S)-2-(3-Fluoropyridin-4-yl)-7-(3-methoxybenzyl)octahydro-6H-pyrazino[1,2-c]pyrimidin-6-one], the IC50 was 3800 nM in assay [3] and 362 nM in assay [5].
